Measurements: the NIST ThermoML archive (doi:10.1016/j.jct.2014.05.005)
Numbers after ± are expanded uncertainties.

How the values were obtained:
[1] = for mass density: 298.15 K, 101.33 kPa, Liquid, Vibrating tube method; for Normal melting temperature: Crystal, DTA
[2] = Molar enthalpy of transition or fusion; details: Crystal; DSC

| mass density [1] | Molar enthalpy of transition or fusion [2] | Normal melting temperature [1] | Structure (SMILES) |
| --- | --- | --- | --- |
| 822.99 ± 1 kg/m3 | – | – | CCCCCCCCO [octan-1-ol] |
| 785.12 ± 1 kg/m3 | – | – | CCO [ethanol] |
| – | 7.8 ± 0.17 kcal/mol | 162.7 ± 0.4 °C | Cn1c(=O)c2c(ncn2CCO)n(C)c1=O [7-(2-hydroxyethyl)-1,3-dimethylxanthine] |
| – | 7.23 ± 0.158 kcal/mol | 271.4 ± 0.4 °C | Cn1c(=O)c2[nH]cnc2n(C)c1=O [3,7-dihydro-1,3-dimethyl-1H-purine-2,6-dione] |
